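Five concentrations, 48 hours, 96-well plates. At the GI50, growth is halved.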 Active and inactive are the calls of the source. Rule as the data show it: active = GI50 up to about 1.1 µM and inactive = higher.
Key:
Experiment in all cases: inhibition of tumour cell growth, NCI panel, 48 h
[1] = test system: OVCAR-3
[2] = test system: SW-620
[3] = test system: SF-268
[4] = test system: SNB-19
[5] = test system: U-251
[6] = test system: SNB-78
[7] = test system: HCT-15
[8] = test system: K562
[9] = test system: EKVX
[10] = test system: CCRF-CEM
[11] = test system: DLD-1
[12] = test system: SF-539
[13] = test system: RPMI-8226
[14] = test system: SK-MEL-2
[15] = test system: UACC-62
[16] = test system: MOLT-4
[17] = test system: A549
[18] = test system: KM-20L2
[19] = test system: MCF7
[20] = test system: HOP-18
[21] = test system: HOP-92
[22] = test system: NCI-H522
[23] = test system: HOP-62
[24] = test system: LOX IMVI
[25] = test system: KM12
[26] = test system: DMS-273
[27] = test system: IGROV-1
[28] = test system: SNB-75
[29] = test system: HCC 2998
[30] = test system: XF498
[31] = test system: SK-OV-3
[32] = test system: UO-31
[33] = test system: OVCAR-4
[34] = test system: SN12C
[35] = test system: RXF 393
[36] = test system: SK-MEL-28
[37] = test system: NCI-H460
[38] = test system: A498
[39] = test system: UACC-257
[40] = test system: SK-MEL-5
[41] = test system: HT-29
[42] = test system: OVCAR-8
[43] = test system: M19-MEL
[44] = test system: NCI-H23
[45] = test system: CAKI-1
[46] = test system: NCI/ADR-RES
[47] = test system: SF-295
[48] = test system: COLO 205
[49] = test system: OVCAR-5
[50] = test system: Malme-3M
[51] = test system: NCI-H226
[52] = test system: HCT-116
[53] = test system: SR
[54] = test system: DMS-114
[55] = test system: ACHN
[56] = test system: HL-60
[57] = test system: LXFL 529
[58] = test system: M14
[59] = test system: TK-10
[60] = test system: 786-0
[61] = test system: BT-549
[62] = test system: MDA-MB-435
[63] = test system: DU-145
[64] = test system: PC-3
[65] = test system: MDA-MB-231
[66] = test system: T47D
[67] = test system: Hs-578T

CC1=CC2=C(C=O)C(=O)[C@](C)(O)[C@@H](O)C2=CO1
GI50 [1]: 1.56 µM (inactive) | GI50 [2]: 29.4 µM (inactive) | GI50 [3]: 24.9 µM (inactive) | GI50 [4]: 0.982 µM (active) | GI50 [5]: 25.2 µM (inactive) | GI50 [6]: 38.5 µM (inactive) | GI50 [7]: 28.8 µM | GI50 [8]: 27.9 µM (inactive) | GI50 [9]: 46.9 µM (inactive) | GI50 [10]: 21.5 µM (inactive) | GI50 [11]: 28.9 µM (inactive) | GI50 [12]: 29.4 µM (inactive) | GI50 [13]: 15.9 µM (inactive) | GI50 [14]: 24.2 µM (inactive) | GI50 [15]: 23.5 µM (inactive) | GI50 [16]: 15.6 µM (inactive) | GI50 [17]: 28 µM (inactive) | GI50 [18]: 1.21 µM (inactive) | GI50 [19]: 39.4 µM (inactive) | GI50 [20]: > 54.5 µM (inactive) | GI50 [21]: > 65.5 µM (inactive) | GI50 [22]: 17.2 µM (inactive) | GI50 [23]: 24.3 µM (inactive) | GI50 [24]: 27.7 µM (inactive) | GI50 [25]: 33.3 µM (inactive) | GI50 [26]: 28.9 µM (inactive) | GI50 [27]: 32.1 µM (inactive) | GI50 [28]: 13.8 µM (inactive) | GI50 [29]: 19.1 µM (inactive) | GI50 [30]: > 54.3 µM (inactive) | GI50 [31]: 19.5 µM (inactive) | GI50 [32]: 16.8 µM (inactive) | GI50 [33]: 39.1 µM (inactive) | GI50 [34]: 28.6 µM (inactive) | GI50 [35]: 16.7 µM (inactive) | GI50 [36]: 25.2 µM (inactive) | GI50 [37]: 29.9 µM (inactive) | GI50 [38]: 24.3 µM (inactive) | GI50 [39]: 33.2 µM (inactive) | GI50 [40]: 24.6 µM (inactive) | GI50 [41]: 37.7 µM (inactive) | GI50 [42]: > 64.7 µM (inactive) | GI50 [43]: 22.4 µM (inactive) | GI50 [44]: 37.2 µM (inactive) | GI50 [45]: 33.5 µM (inactive) | GI50 [46]: > 53.8 µM (inactive) | GI50 [47]: 35.7 µM (inactive) | GI50 [48]: 28.1 µM (inactive) | GI50 [49]: > 50.8 µM (inactive) | GI50 [50]: 26.4 µM (inactive) | GI50 [51]: 25.8 µM (inactive) | GI50 [52]: 22.3 µM (inactive)

Cc1nc(Nc2nnc(-c3cc([N+](=O)[O-])cc([N+](=O)[O-])c3C)o2)sc1C(=O)CC(=O)Cc1nc2ccc(Cl)cc2nc1O
GI50 [2]: > 100 µM (inactive) | GI50 [3]: > 100 µM (inactive) | GI50 [4]: > 100 µM (inactive) | GI50 [5]: > 100 µM (inactive) | GI50 [6]: 93.5 µM (inactive) | GI50 [7]: > 100 µM | GI50 [8]: 41.8 µM (inactive) | GI50 [9]: 37.3 µM (inactive) | GI50 [53]: 77.6 µM (inactive) | GI50 [10]: > 100 µM (inactive) | GI50 [54]: > 100 µM (inactive) | GI50 [12]: > 100 µM (inactive) | GI50 [13]: > 100 µM (inactive) | GI50 [14]: > 100 µM (inactive) | GI50 [15]: 33.6 µM (inactive) | GI50 [16]: > 100 µM (inactive) | GI50 [17]: > 100 µM (inactive) | GI50 [18]: > 100 µM (inactive) | GI50 [21]: > 100 µM (inactive) | GI50 [22]: 61.4 µM (inactive) | GI50 [23]: > 100 µM (inactive) | GI50 [24]: > 100 µM (inactive) | GI50 [25]: > 100 µM (inactive) | GI50 [26]: 50.5 µM (inactive) | GI50 [27]: > 100 µM (inactive) | GI50 [28]: > 100 µM (inactive) | GI50 [55]: > 100 µM (inactive) | GI50 [29]: > 100 µM (inactive) | GI50 [56]: > 100 µM (inactive) | GI50 [30]: > 100 µM (inactive) | GI50 [31]: > 100 µM (inactive) | GI50 [32]: > 100 µM (inactive) | GI50 [33]: > 100 µM (inactive) | GI50 [34]: > 100 µM (inactive) | GI50 [35]: > 100 µM (inactive) | GI50 [36]: > 100 µM (inactive) | GI50 [37]: > 100 µM (inactive) | GI50 [57]: > 100 µM (inactive) | GI50 [38]: > 100 µM (inactive) | GI50 [58]: > 100 µM (inactive) | GI50 [39]: > 100 µM (inactive) | GI50 [40]: > 100 µM (inactive) | GI50 [41]: > 100 µM (inactive) | GI50 [42]: > 100 µM (inactive) | GI50 [43]: > 100 µM (inactive) | GI50 [44]: > 100 µM (inactive) | GI50 [45]: > 100 µM (inactive) | GI50 [47]: > 100 µM (inactive) | GI50 [48]: > 100 µM (inactive) | GI50 [49]: > 100 µM (inactive) | GI50 [51]: > 100 µM (inactive) | GI50 [52]: > 100 µM (inactive) | GI50 [59]: > 100 µM (inactive)

Nc1c2ccccc2nc2c(C(=O)Nc3ccc(S(N)(=O)=O)cc3)cccc12
GI50 [1]: 33.7 µM (inactive) | GI50 [2]: 66.2 µM (inactive) | GI50 [3]: 42.3 µM (inactive) | GI50 [4]: 92.3 µM (inactive) | GI50 [5]: 49 µM (inactive) | GI50 [6]: > 100 µM (inactive) | GI50 [7]: > 100 µM | GI50 [60]: > 100 µM (inactive) | GI50 [8]: 28.6 µM (inactive) | GI50 [9]: > 100 µM (inactive) | GI50 [10]: 12.5 µM (inactive) | GI50 [54]: > 100 µM (inactive) | GI50 [11]: > 100 µM (inactive) | GI50 [12]: 13.2 µM (inactive) | GI50 [13]: 33.1 µM (inactive) | GI50 [14]: > 100 µM (inactive) | GI50 [15]: 97.5 µM (inactive) | GI50 [16]: 11.1 µM (inactive) | GI50 [17]: > 100 µM (inactive) | GI50 [18]: > 100 µM (inactive) | GI50 [22]: 21.8 µM (inactive) | GI50 [23]: > 100 µM (inactive) | GI50 [24]: 40.1 µM (inactive) | GI50 [25]: 32.1 µM (inactive) | GI50 [26]: 52.8 µM (inactive) | GI50 [27]: > 100 µM (inactive) | GI50 [28]: 61.8 µM (inactive) | GI50 [55]: > 100 µM (inactive) | GI50 [29]: > 100 µM (inactive) | GI50 [30]: 72.3 µM (inactive) | GI50 [31]: > 100 µM (inactive) | GI50 [32]: 46.3 µM (inactive) | GI50 [33]: > 100 µM (inactive) | GI50 [34]: > 100 µM (inactive) | GI50 [35]: > 100 µM (inactive) | GI50 [36]: > 100 µM (inactive) | GI50 [37]: > 100 µM (inactive) | GI50 [57]: 45.2 µM (inactive) | GI50 [38]: > 100 µM (inactive) | GI50 [58]: > 100 µM (inactive) | GI50 [39]: > 100 µM (inactive) | GI50 [40]: 86.3 µM (inactive) | GI50 [41]: > 100 µM (inactive) | GI50 [42]: 57.9 µM (inactive) | GI50 [43]: 60 µM (inactive) | GI50 [44]: > 100 µM (inactive) | GI50 [45]: > 100 µM (inactive) | GI50 [47]: > 100 µM (inactive) | GI50 [48]: > 100 µM (inactive) | GI50 [49]: > 100 µM (inactive) | GI50 [50]: 74 µM (inactive) | GI50 [51]: 84.3 µM (inactive) | GI50 [52]: 67.5 µM (inactive) | GI50 [59]: > 100 µM (inactive)

CC[C@@]1(O)C(=O)OCc2c1cc1n(c2=O)Cc2cc3cc(O)ccc3nc2-1 [HYDROXYCAMPTOTHECIN]
GI50 [5]: < 0.0075 µM (active) | GI50 [6]: 0.248 µM (active) | GI50 [7]: 0.295 µM | GI50 [60]: 0.0241 µM (active) | GI50 [61]: 54.3 nM (active) | GI50 [53]: 0.01 µM (active) | GI50 [10]: < 0.0075 µM (active) | GI50 [54]: 0.0136 µM (active) | GI50 [62]: 45.3 nM (active) | GI50 [11]: 1.2 µM (inactive) | GI50 [12]: 0.00826 µM (active) | GI50 [14]: 0.473 µM (active) | GI50 [15]: < 0.0075 µM (active) | GI50 [63]: 10 nM (active) | GI50 [16]: 0.00944 µM (active) | GI50 [17]: 0.0506 µM (active) | GI50 [18]: 0.0834 µM (active) | GI50 [19]: < 0.0075 µM (active) | GI50 [20]: 0.109 µM (active) | GI50 [21]: 0.0277 µM (active) | GI50 [64]: 84 nM (active) | GI50 [22]: 0.0105 µM (active) | GI50 [23]: < 0.0109 µM (active) | GI50 [24]: 0.0337 µM (active) | GI50 [27]: 0.476 µM (active) | GI50 [28]: 0.014 µM (active) | GI50 [55]: < 0.0116 µM (active) | GI50 [56]: 0.0161 µM (active) | GI50 [30]: 0.0262 µM (active) | GI50 [31]: 0.0227 µM (active) | GI50 [33]: 0.092 µM (active) | GI50 [34]: 0.0128 µM (active) | GI50 [35]: 0.0236 µM (active) | GI50 [65]: 867 nM (active) | GI50 [57]: 0.15 µM (active) | GI50 [58]: 0.0336 µM (active) | GI50 [42]: 0.0142 µM (active) | GI50 [43]: 0.0513 µM (active) | GI50 [66]: 10 nM (active) | GI50 [67]: 1.04 µM (active) | GI50 [44]: 0.0176 µM (active) | GI50 [45]: 0.00971 µM (active) | GI50 [46]: 0.0232 µM (active) | GI50 [48]: 0.125 µM (active) | GI50 [49]: 0.047 µM (active) | GI50 [50]: 0.0498 µM (active) | GI50 [59]: 2.69 µM (inactive)

Source: ChEMBL document CHEMBL1201862, “PubChem BioAssay data set” (2004)
